Data as given in patent US11608323B2 (SYNGENTA LIMITED, priority 2013, dated 2023).

What was measured:
Format in all cases: in vivo
[1] = tested on: ABUTH; assay: Pre-emergence herbicidal activity, glasshouse pot test; settings: rate 1000 g/Ha, evaluated after 13 days, scale 0-5
How it was run: (§1)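 Sow in pots of standard soil; after one day under glasshouse conditions, spray compound (acetone/water 50:50 formulation, 0.5% Tween 20, diluted in water). Grow on at 24/16 °C, 14 h light, 65% humidity with twice-daily watering. Assess at 13 days, 0–5 damage scale.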

[2] = tested on: ALOMY; assay: as above; settings: rate 1000 g/Ha, evaluated after 13 days, scale 0-5
How it was run: as §1

[3] = tested on: AMARE; assay: as above; settings: rate 1000 g/Ha, evaluated after 13 days, scale 0-5
How it was run: as §1

[4] = tested on: ECHCG; assay: as above; settings: rate 1000 g/Ha, evaluated after 13 days, scale 0-5
How it was run: as §1

[5] = tested on: SETFA; assay: as above; settings: rate 1000 g/Ha, evaluated after 13 days, scale 0-5
How it was run: as §1

[6] = tested on: ZEAMX; assay: as above; settings: rate 1000 g/Ha, evaluated after 13 days, scale 0-5
How it was run: as §1

[7] = tested on: ABUTH; assay: Post-emergence herbicidal activity, glasshouse pot test; settings: Abutilon theophrasti; application post-emergence; rate 1000 g/Ha; evaluated after 13 days
How it was run: (§2)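 Damage was rated 0-5 (5 = total) 13 days after a post-emergence spray of acetone/water (50:50) plus 0.5% Tween 20 formulation. Plants were sprayed at 8 days' growth and kept at 24/16° C, 14 h light, 65% humidity, watered twice daily.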

[8] = tested on: ALOMY; assay: as above; settings: Alopecurus myosuroides; application post-emergence; rate 1000 g/Ha; evaluated after 13 days
How it was run: as §2

[9] = tested on: AMARE; assay: as above; settings: Amaranthus retroflexus; application post-emergence; rate 1000 g/Ha; evaluated after 13 days
How it was run: as §2

[10] = tested on: ECHCG; assay: as above; settings: Echinochloa crus-galli; application post-emergence; rate 1000 g/Ha; evaluated after 13 days
How it was run: as §2

[11] = tested on: SETFA; assay: as above; settings: Setaria faberi; application post-emergence; rate 1000 g/Ha; evaluated after 13 days
How it was run: as §2

[12] = tested on: ZEAMX; assay: as above; settings: Zea mays; application post-emergence; rate 1000 g/Ha; evaluated after 13 days
How it was run: as §2

Row | Compound | ABUTH damage score, application pre-emergence [1] | ALOMY damage score, application pre-emergence [2] | AMARE damage score, application pre-emergence [3] | ECHCG damage score, application pre-emergence [4] | SETFA damage score, application pre-emergence [5] | ZEAMX damage score, application pre-emergence [6] | Post-emergence herbicidal activity ABUTH (damage score 0-5) [7] | Post-emergence herbicidal activity ALOMY (damage score 0-5) [8] | Post-emergence herbicidal activity AMARE (damage score 0-5) [9] | Post-emergence herbicidal activity ECHCG (damage score 0-5) [10] | Post-emergence herbicidal activity SETFA (damage score 0-5) [11] | Post-emergence herbicidal activity ZEAMX (damage score 0-5) [12]
1 | CON1C(=O)N(c2cc(C(F)(F)F)c(Br)cn2)C(O)C1C (single isomer, unassigned) [Compound A55] | 5 | 4 | 5 | 4 | 4 | 2 | 5 | 5 | 5 | 5 | 5 | 4
2 | COc1ccc(-c2cnc(N3C(=O)N(C)C(C)C3O)cc2C(F)(F)F)cn1 (stereo not drawn) [Compound A21] | 5 | 3 | 5 | 5 | 5 | 2 | 5 | 5 | 5 | 5 | 5 | 3
3 | CC1C(O)N(c2cc(C(F)(F)F)c(I)cn2)C(=O)N1C (stereo not drawn) [Compound A25, 5-hydroxy-1-[5-iodo-4-(trifluoromethyl)-2-pyridyl]-3,4-dimethyl-imidazolidin-2-one] | 5 | 4 | 5 | 5 | 4 | 2 | 5 | 5 | 5 | 5 | 5 | 5
4 | CCO[C@@H]1[C@@H](OC(=O)C(C)Cl)N(c2cc(C(F)(F)F)ccn2)C(=O)N1C (stereo partly drawn) [Compound A101] | 5 | 4 | 5 | 4 | 4 | 0 | 5 | 5 | 5 | 5 | 5 | 3
5 | CCOC1C(OC(=O)[C@@H](C)c2ccc(CC(C)C)cc2)N(c2cc(C(F)(F)F)ccn2)C(=O)N1C (stereo partly drawn) [Compound A99] | 1 | 0 | 5 | 0 | 0 | 0 | 1 | 0 | 5 | 3 | 0 | 1
6 | CON1C(=O)N(c2cc(C(F)(F)F)ccn2)C(O)[C@@H]1C (mixture of isomers) [Compound A3, (4R,5S)-4-hydroxy-1-methoxy-5-methyl-3-[4-(trifluoromethyl)-2-pyridyl]imidazolidin-2-one and (4S,5S)-4-hydroxy-1-methoxy-5-methyl-3-[4-(trifluoromethyl)-2-pyridyl]imidazolidin-2-one] | 4 | 3 | 5 | 5 | 5 | 3 | 5 | 5 | 5 | 5 | 5 | 5
7 | CCOC1C(O)N(c2cc(C(F)(F)F)c(-c3ccccc3)cn2)C(=O)N1C (stereo not drawn) [Compound A13] | 5 | 3 | 5 | 3 | 3 | 1 | 5 | 4 | 5 | 5 | 5 | 0
8 | COCCOC1C(O)N(c2cc(C(F)(F)F)ccn2)C(=O)N1C (stereo not drawn) [Compound A45] | 5 | 2 | 5 | 3 | 3 | 1 | 5 | 2 | 5 | 3 | 3 | 1
9 | CCOC1C(O)N(c2cc(C(F)(F)F)ccn2)C(=O)N1C (racemic) [Compound A6, 5-ethoxy-4-hydroxy-1-methyl-3-[4-(trifluoromethyl)-2-pyridyl]imidazolidin-2-one] | 5 | 4 | 5 | 4 | 5 | 2 | 5 | 5 | 5 | 5 | 5 | 2
10 | CC1C(O)N(c2cc(C(F)(F)F)c(NC(=O)C(C)(C)C)cn2)C(=O)N1C (single isomer, unassigned) [Compound A57] | 5 | 4 | 5 | 3 | 3 | 1 | 5 | 5 | 5 | 5 | 5 | 4
11 | O=C1N(c2cc(C(F)(F)F)ccn2)C(O)[C@@H]2CCCN12 (stereo partly drawn) [Compound A46] | 5 | 4 | 5 | 4 | 2 | 3 | 5 | 5 | 5 | 5 | 5 | 3
12 | CC1C(O)N(c2cc(C(F)(F)F)ccn2)C(=O)N1C (stereo not drawn) [Compound A19, 4-hydroxy-1,5-dimethyl-3-[4-(trifluoromethyl)-2-pyridyl]imidazolidin-2-one] | 5 | 4 | 5 | 5 | 5 | 3 | 5 | 5 | 5 | 5 | 5 | 4
